We go through two compounds from PMC12866986 (European journal of medicinal chemistry, 2026).

In data set [1] the test system is Src. To be noted: at 10 μM; cited from earlier work.
Data set [2] relates to Pyk2. To be noted: at 10 μM; cited from earlier work.
Data set [3] relates to gut mucosal wound. Particulars: cited from earlier work.
In data set [4] the test system is Caco-2 cells. To be noted: cited from earlier work.
Data set [5] addresses hERG (Homo sapiens, UniProt Q12809). To be noted: at 30 μM.
The conditions of data set [6]: cited from earlier work.
The conditions of data set [7]: rat plasma.
For data set [8], the system named is Caco-2 cells.
For data set [9] the following is noted: after four days of continuous administration; cited from earlier work.
The conditions of data set [10]: at concentrations 10,000x higher than the effective dose; cited from earlier work.
For data set [11] the following is noted: cited from earlier work. The source holds these as a separate data set.
The conditions of data set [12]: PBS at pH = 7.4.

Chain of hERG (Q12809 whole entry): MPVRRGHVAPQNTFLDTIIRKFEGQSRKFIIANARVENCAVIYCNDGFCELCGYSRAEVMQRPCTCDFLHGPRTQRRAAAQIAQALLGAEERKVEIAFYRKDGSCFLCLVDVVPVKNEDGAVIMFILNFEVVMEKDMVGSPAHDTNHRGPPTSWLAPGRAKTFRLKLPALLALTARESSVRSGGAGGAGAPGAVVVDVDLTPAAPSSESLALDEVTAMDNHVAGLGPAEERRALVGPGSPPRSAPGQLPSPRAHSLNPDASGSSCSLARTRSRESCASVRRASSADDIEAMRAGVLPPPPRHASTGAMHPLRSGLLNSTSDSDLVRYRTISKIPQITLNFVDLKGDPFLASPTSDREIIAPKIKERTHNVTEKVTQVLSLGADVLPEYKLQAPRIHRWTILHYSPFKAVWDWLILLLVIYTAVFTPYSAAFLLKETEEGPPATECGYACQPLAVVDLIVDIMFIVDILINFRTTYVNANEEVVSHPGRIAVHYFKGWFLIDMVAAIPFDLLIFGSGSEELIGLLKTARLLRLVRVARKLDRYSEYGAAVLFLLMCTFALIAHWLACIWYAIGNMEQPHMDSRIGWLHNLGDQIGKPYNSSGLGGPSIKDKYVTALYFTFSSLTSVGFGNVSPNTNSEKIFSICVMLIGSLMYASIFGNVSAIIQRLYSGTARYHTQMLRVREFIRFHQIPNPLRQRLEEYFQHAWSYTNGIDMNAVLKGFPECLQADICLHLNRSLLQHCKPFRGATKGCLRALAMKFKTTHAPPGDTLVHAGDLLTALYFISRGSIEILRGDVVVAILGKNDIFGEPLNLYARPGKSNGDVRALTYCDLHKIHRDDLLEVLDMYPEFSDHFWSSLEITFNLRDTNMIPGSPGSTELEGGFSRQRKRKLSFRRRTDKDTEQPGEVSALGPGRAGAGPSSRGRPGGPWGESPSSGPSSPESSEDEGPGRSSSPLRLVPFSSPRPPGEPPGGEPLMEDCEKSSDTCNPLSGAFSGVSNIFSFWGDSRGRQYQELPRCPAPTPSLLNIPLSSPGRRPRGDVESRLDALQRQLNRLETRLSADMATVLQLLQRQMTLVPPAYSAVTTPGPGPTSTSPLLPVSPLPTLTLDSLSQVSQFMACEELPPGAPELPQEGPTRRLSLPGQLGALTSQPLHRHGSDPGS

`CN(C)C(CNC(=O)Nc1cc(C(F)(F)F)ccc1N1CCOCC1)c1ccncc1` (centres unmarked) [Compound 5a, 1-(2-(dimethylamino)-2-(pyridin-4-yl)ethyl)-3-(2-morpholino-5-(trifluoromethyl)phenyl)urea]: the Src activation entry in data set [1] is “does not activate”. Moreover, the Pyk2 activation entry in data set [2] is “does not activate”. Also, the “gut mucosal wound healing in vivo” value in data set [3] was “stimulates gut mucosal wound healing”. Moreover, the “epithelial sheet migration in vitro” value in [4] was “induces epithelial sheet migration”.

The EC50 is the concentration at which the effect is half-maximal. The term Solubility denotes the dissolved amount per volume that the medium holds. As to `CN(C)C(CNC(=O)Nc1cc(C(F)(F)F)ccc1N1CCOCC1)c1ccncc1.Cl` (centres unmarked) [Compound 5aHCl, 1-(2-(dimethylamino)-2-(pyridin-4-yl)ethyl)-3-(2-morpholino-5-(trifluoromethyl)phenyl)urea hydrochloric salt], the “hERG Inhibition %” value in data set [5] is reported as 4.87%. Moreover, the oral bioavailability result in [6] is listed as “orally bioavailable”. Moreover, in [7] (10 mg/kg oral gavage), the “area under the curve” value was 3149 µg·h/mL and the “time of Cmax” value is 1 h. For the same compound, the “maximum concentration (Cmax)” value in [7] (10 mg/kg oral gavage in saline, n = 4) came to 0.967 µg/mL. In addition, in data set [8] (100 nM, 4 mM hydroxyurea, 24 h, Caco-2 monolayers, n=33–35, p<0.05 vs vehicle), the “wound closure with proliferation inhibited” value was “accelerated”. Further, the EC50 in [8] (read-out: EC50 (nM), ± SEM, wound healing, Caco-2 assay) was determined as 3.01 ± 0.52 nM. Moreover, the Clint (intrinsic clearance) is listed as greater than 307 uL/min/mg protein. The “MLM t1/2” value (mouse liver microsomes) is given as less than 4.51 min. Besides, in data set [9], the in vivo toxicity result is “no in vivo toxicity”. The in vitro cytotoxicity result in data set [10] is given as “no in vitro cytotoxicity”. Also, the water solubility entry in data set [11] is “water-soluble”. In [12], the Solubility came to 1.074 mg/mL.
